According to US7563766B2, “Methods and compositions for the promotion of a hair growth utilizing actin binding peptides” (The United States of America as represented by the …, priority 2002, dated 2009):
Ends that are not written are not given here.

What was measured:
[1] = test system: hair follicles; experiment: Topical thymosin β4 on normal (unwounded) shaved rat skin; type: in vivo; details: 30 days after treatment
Description: In these experiments, 8 week old female Sprague Dawley rats were utilized. Thymosin β4 was applied on the shaved backs of the animals at a concentration of 0.5 mg/ml in hydrogel three times per week (Monday, Wednesday and Friday). The hair of the animals was observed over 30 days. Some of the animals were sacrificed on day 7 after the initiation of treatment, while others were sacrificed on day 30 after initiation of treatment. Tissue sections were prepared using methods known in the art, as indicated above in Example 1. The tissue section samples were all read and compared on a blind basis by an observer trained in dermatology.
One study used shaved rats where thymosin β4 was applied topically on one side of the shaved area and on the opposing lateral side a control vehicle was applied. […] The number of anagen follicles was approximately two-fold greater than in rats treated with the control vehicle alone (see FIG. 7D). […] The increased number of hairs in the anagen phase was retained with continued tri-weekly treatment over 30 days. However, within 14 days of ceasing treatment, the number of active hair follicles decreased to control levels.

[2] = test system: male patients between 18 and 41 years of age; post-menopausal women; details: cited from earlier work
[3] = test system: chick aortic arches; experiment: Chick aortic arch vessel sprouting assay; type: cell-based; set-up: key to Sprouting: − = no activity; +/− = low activity; + = active; ++ = high activity; details: for Sprouting: Table 2 score; for activity in the assays (endothelial cell migration and vessel sprouting): statement covers both migration and sprouting assays
Description: Chick aortic arch assay—The aortic arch of 13-day-old chick embryos was removed and placed in RPMI 1640. After removal of surrounding connective tissue, transverse sections of the arch were made (1 mm). The resulting aortic rings were carefully attached to the bottom of a 48-well plate, one ring per well, with 20-30 μl of Matrigel (Collaborative Biomedical Products). The rings were placed so that the lumen of each ring could be seen. More Matrigel was added onto the top of the rings to seal them in place. A 100 μl volume of human endothelial—SFM basal growth medium (Invitrogen) containing 1% penicillin streptomycin was added to each well. Thymosin β4, peptide fragments, and exogenous actin (Sigma Chemical Co.) were added to wells in serum-free medium, bringing the final volume of each well to 400 μl. ECGS (200 μg/ml) was used as a positive control. The plates were incubated for 24 hr at 37° C. Rings were fixed and stained with Diff-Quik solution II. Sprouting was scored in a blind assessment by an observer using 10× magnification on an Olympus microscope. Six wells were used for each condition tested, and each assay was done three times.

[4] = test system: human umbilical vein endothelial cells; experiment: HUVEC migration, Boyden chamber assay; type: cell-based; set-up: key to Migration: − = no activity; +/− = low activity; + = active; ++ = high activity; details: for Migration: Table 2 score
Description: Cells—HUVECs were isolated and used at passages 2-5. Grant et al., J. Cell Sci. 108:3685-3694 (1995). The cells were cultured in RPMI 1640 (Invitrogen, Carlsbad, Calif.) supplemented with 20% bovine calf serum (Hyclone Laboratories, Logan, Utah), 200 μg/ml of endothelial cell growth supplement (ECGS) (Collaborative Biomedical Products, Bedford, Mass.), 0.8 U/ml heparin sodium (Fisher Scientific, Pittsburgh, Pa.), penicillin/streptomycin (Invitrogen, Carlsbad, Calif.), 10 μg/ml gentamycin (Invitrogen, Carlsbad, Calif.), and 1% fungizone (Invitrogen, Carlsbad, Calif.).
Boyden chamber assay—HUVEC migration assays were conducted in a 48-well micro-chemotaxis chamber (Neuro Probe Inc., Cabin John, Md.) as previously described in Salcedo et al., J. Immunol. 166:7571-7578 (2001). Briefly, PVP-free polycarbonate membranes with 8 μm pores were coated with 50 μg/ml of rat tail collagen (BD Biosciences, Bedford, Mass.) in RPMI 1640 that contained 25 mM HEPES (Invitrogen, Carlsbad, Calif.) at 4° C. overnight. The membranes were dried at least 1 hr prior to use. HUVECs were serum-starved for 2 hr, harvested using Versene (Invitrogen, Carlsbad, Calif.), and resuspended in binding medium that contained RPMI 1640 with 1% BSA and 25 mM HEPES. The lower wells of the chamber were loaded with 1, 10, 100, and 1000 ng/ml of thymosin β4 or peptide fragments that were diluted in binding medium. Basic fibroblast growth factor (bFGF) (200 ng/ml) was used as a positive control. Cells were added to the upper portion of the chamber at a concentration of 50,000 cells per well. The chambers were incubated at 37° C. for 4 hr. The filters were fixed and stained using Diff-Quik (VWR, Bridgeport, N.J.). The cells that successfully migrated through the pores of the membrane were manually quantitated using a CK-2 Olympus microscope at 10× magnification. Each condition was assayed in triplicate, and the assay was repeated twice.

[5] = 1 mg/day oral for 2 years, male patients 18 to 41 years

Compound | Sprouting [3] | activity in the assays (endothelial cell migration and vessel sprouting) [3] | Migration [4] | also measured
CC[C@H](C)[C@H](NC(=O)[C@H](CCC(=O)O)NC(=O)[C@H](C)NC(=O)[C@H](CCSC)NC(=O)[C@H](CC(=O)O)NC(=O)[C@@H]1CCCN1C(=O)[C@H](CCCCN)NC(=O)[C@H](CC(=O)O)NC(=O)[C@H](CO)NC(C)=O)C(=O)N[C@@H](CCC(=O)O)C(=O)N[C@@H](CCCCN)C(=O)N[C@@H](Cc1ccccc1)C(=O)N[C@@H](CC(=O)O)C(=O)N[C@@H](CCCCN)C(=O)N[C@@H](CO)C(=O)N[C@@H](CCCCN)C(=O)N[C@@H](CC(C)C)C(=O)N[C@@H](CCCCN)C(=O)N[C@@H](CCCCN)C(=O)N[C@H](C(=O)N[C@@H](CCC(=O)O)C(=O)N[C@H](C(=O)N[C@@H](CCC(N)=O)C(=O)N[C@@H](CCC(=O)O)C(=O)N[C@@H](CCCCN)C(=O)N[C@@H](CC(N)=O)C(=O)N1CCC[C@H]1C(=O)N[C@@H](CC(C)C)C(=O)N1CCC[C@H]1C(=O)N[C@@H](CO)C(=O)N[C@@H](CCCCN)C(=O)N[C@@H](CCC(=O)O)C(=O)N[C@H](C(=O)N[C@H](C(=O)N[C@@H](CCC(=O)O)C(=O)N[C@@H](CCC(N)=O)C(=O)N[C@@H](CCC(=O)O)C(=O)N[C@@H](CCCCN)C(=O)N[C@@H](CCC(N)=O)C(=O)N[C@@H](C)C(=O)NCC(=O)N[C@@H](CCC(=O)O)C(=O)N[C@@H](CO)C(=O)O)[C@@H](C)CC)[C@@H](C)O)[C@@H](C)O)[C@@H](C)O [Tβ4, Thymosin β4] |  |  |  | change in the epidermis or in the thickness of the dermis [1]: little change; inflammatory cells [1]: some increase
CC(C)(C)NC(=O)[C@H]1CC[C@H]2[C@@H]3CC[C@H]4NC(=O)C=C[C@]4(C)[C@H]3CC[C@]12C [finasteride] |  |  |  | cases in which further hair loss was prevented [2, 5]: 83%; cases with visible hair growth [2, 5]: 66%; efficacy in post-menopausal women ([2]; 1 mg/day over 1 year): ineffective; side effects ([2]; human, in vivo): lack of libido, lack of potency, and mild reduction in semen
Tβ4^1-8: proteolytic fragment of naturally occurring Tβ4, acSDKP DM (Ac-SDKPDM; UniProt P62328 2-7, looked up, fragment) | − | inactive |  | 
Tβ4^1-16: synthetic, the first 15 amino acid residues of SEQ ID NO: 1 (SDKPDMAEIEKFDKS; ends and bridges not checked; listed as Bos taurus) | +/− |  | − | vessel sprouting, in words [3]: very weak activity
Tβ4^1-28: proteolytic fragment of naturally occurring Tβ4, residues 1 to KN (SDKPDMAEIEKFDKSKLKKTETQEKN; not fully specified; Thymosin beta-4; UniProt P62328 2-27, looked up, fragment) | +/− | generally highly active |  | 
Tβ4^7-43: proteolytic fragment of naturally occurring Tβ4, residues 7-43 (AEIEKFDKSKLKKTETQEKNPLPSKETIEQEKQAGES; Thymosin beta-4; UniProt P62328 8-44, looked up, fragment) | ++ | generally highly active | ++ | 
Tβ4^10-28: synthetic, amino acid residues 10-28 of SEQ ID NO: 1 (EKFDKSKLKKTETQEKNPL; listed as Bos taurus) | ++ | generally highly active | + | 
Tβ4^13-43: proteolytic fragment of naturally occurring Tβ4, residues 13-43 (DKSKLKKTETQEKNPLPSKETIEQEKQAGES; Thymosin beta-4; UniProt P62328 14-44, looked up, fragment) | +/− | generally highly active | + | 
Tβ4^18-19: synthetic, amino acid residues 13-19 of SEQ ID NO: 1 (DKSKLKK; listed as Bos taurus) | − | inactive |  | 
Tβ4^20-48: synthetic, amino acid residues 20-43 of SEQ ID NO: 1 (TETQEKNPLPSKETIEQEKQAGES; listed as Bos taurus) | + | generally highly active | ++ | 
Tβ4^27-48: proteolytic fragment PLP SKETI EQEKQ AGES (PLPSKETIEQEKQAGES; Thymosin beta-4; UniProt P62328 28-44, looked up, fragment) | +/− |  | + | 
Tβ4^Ala: naturally occurring β-thymosin, acADKP variant of Tβ4 (ADKPDMAEIEKFDKSKLKKTETQEKNPLPSKETIEQEKQAGES; Thymosin beta-4 N-terminal acetyl; UniProt P62328 2-44, looked up, variant S1A) | + | active |  | 
Tβ10: naturally occurring β-thymosin with conserved actin-binding domain (ADKPDMGEIASFDKAKLKKTETQEKNTLPTKETIEQEKRSEIS; UniProt P63313 2-44, looked up) | + | active | ++ | 
Tβ15^18-28: synthetic peptide of thymosin β15 amino acids 13-23, DK SKLKK TNTE | + |  |  | vessel sprouting, in words [3]: active
amino acid residues 17-22 of SEQ ID NO: 1: six amino acid residues 17-22 of thymosin β4, shorter actin binding sequence (LKKTET; listed as Bos taurus) |  |  |  | endothelial cell migration, in words [4]: promotes endothelial cell migration
thymosin β4-sulfoxide (SDKPDMAEIEKFDKSKLKKTETQEKNPLPSKETIEQEKQAGES; Thymosin beta-4 methionine sulfoxide; UniProt P62328 2-44, looked up) [Tβ4^(O), sulfoxide form prepared from the naturally occurring peptide] | ++ | active | ++ | 
